This is an account of results in patent US8604225B2, “Method of producing hydroxymethyl-furfural” (Novozymes, A/S, priority 2010, dated 2013).

Data set [1] is described as follows: HMF distribution between organic extraction solvent and aqueous phase. In kind it is physicochemical. The settings on record: B(OH)3 and NaCl, organic:aqueous 4:1, 150° C. The method, then:
An aqueous solution containing 30 wt % fructose (3 mL, 5.7 mmol) was mounted in an Ace vial pressure tube (stable to ˜20 Bar) and solid B(OH)3 (0.3 g, 5 mmol) and NaCl (0.15 g, 3 mmol) were added to the solution. Different organic extraction solvent were added resulting in a organic:aqueous volume ratio of 4:1. The tube with the reaction mixture was placed in a preheated oil bath for a specified time under magnetic stirring (420 rpm) at a 150° C. (reaction times were measured after a stable oil bath temperature had been reached). After the reaction, the tube was removed from the oil bath and cooled to room temperature before a sample was taken for analysis. A sample of the reaction mixture was collected and filtered through a syringe filter (0.45 μm PTFE), mixed with an internal standard (i-PrOH) and analyzed via HPLC.
The R value indicated in table 10 is the HMF distribution obtained between the MIBK phase and the aqueous phase, i.e. [HMF]MIBK/[HMF]aq.

The target of data set [2] is T1, immobilized glucose isomerase (Sweetzyme™) (Streptomyces murinus, UniProt P37031). Put plainly: Effect of HMF on the initial activity of Sweetzyme™ (batch bottles). The class given is biochemical, S. murinus. The settings on record: for initial activity: 60° C. More on the design: purchased Novozymes A/S. The method, then: 2.5 gram immobilized glucose isomerase (Sweetzyme™) was loaded to a 250 mL square shaped bottles with screw cap. The bottles were placed in an orbital shaker and heated to 60° C.
T1 sequence (P37031 whole entry): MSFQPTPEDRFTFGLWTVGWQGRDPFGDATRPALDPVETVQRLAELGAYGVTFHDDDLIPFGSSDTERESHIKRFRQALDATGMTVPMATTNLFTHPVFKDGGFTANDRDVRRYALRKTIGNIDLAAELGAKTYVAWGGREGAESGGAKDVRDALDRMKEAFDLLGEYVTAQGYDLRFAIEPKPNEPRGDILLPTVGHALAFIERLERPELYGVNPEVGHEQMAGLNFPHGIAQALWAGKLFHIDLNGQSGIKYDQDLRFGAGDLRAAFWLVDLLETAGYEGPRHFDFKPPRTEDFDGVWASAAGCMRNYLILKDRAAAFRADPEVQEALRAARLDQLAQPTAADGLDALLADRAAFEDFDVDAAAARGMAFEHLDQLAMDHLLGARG
The following conditions were applied for 4 bottles. The term conversion is defined as the fructose/glucose ratio.
Conversion vs. time is presented in FIG. 10 and the initial activity is calculated to be 389.
Conversion vs. time is presented in FIG. 11 and the initial activity is calculated to be 378.
Conversion vs. time is presented in FIG. 12 and the initial activity is calculated to be 364.

Data set [3] has as its target T1, immobilized glucose isomerase (Sweetzyme™). Nature of the data set: Glucose isomerase performance with substrate containing HMF. In kind it is biochemical, S. murinus. More on the design: purchased Novozymes A/S. Particulars: for Activity: Syrup with 0.1 w/w % HMF. As for the experimental part:
To the substrate was added hydroxymethylfurfural (HMF) to a final concentration of 0.1 w/w % HMF.

Setting [4] is: 30 wt % fructose, time not given.

On to `C1CCOC1` [THF, tetrahydrofuran], for which the R-value in data set [1] (setting [4]) came to 3.2; in data set [1] (60 min), 3.7; in data set [1] (75 min), 3.6.

Regarding `CC(=O)CC(C)C` [MIBK, methyl-isobutylketone], in data set [1] (setting [4]), the R-value was 1.0.

With `CCC(C)O` (stereo not drawn) [2-BuOH, 2-butanol], in data set [1] (setting [4]), the R-value turned out to be 2.3.

Consider `O=Cc1ccc(CO)o1` [HMF, 5-(hydroxymethyl)-2-furaldehyde], for which the results for the initial activity in data set [2] (Bottle 2: 0.01 w/w % HMF in 45% glucose syrup), in data set [2] (Bottle 3: 0.1 w/w % HMF in 45% glucose syrup) and in data set [2] (Bottle 4: 1 w/w % HMF in 45% glucose syrup) were 389, 378 and 364, respectively. Also, the “Sweetzyme™ activity as a function of HMF concentration” value in data set [2] (FIG. 13, 0.01-1 w/w % HMF) is “not seriously affected”. The Activity in data set [3] (time 94.25 h) stood at 360.39 IGIU/g; in data set [3] (time 116.25 h) it was 267.97 IGIU/g; in data set [3] (time 139.50 h) it was 368.20 IGIU/g; in data set [3] (time 162.75 h), 359.92 IGIU/g; in data set [3] (time 237.25 h), 367.23 IGIU/g; in data set [3] (time 259.17 h) it was 353.51 IGIU/g. For the same compound, the Activity was 363.92 IGIU/g in data set [3] (time 283.67 h) and 358.90 IGIU/g in data set [3] (time 311.08 h). Further, in data set [3] (after 9 days with substrate containing 0.1 w/w % HMF), the “decay rate compared to a column with normal syrup” value is given as “not affected”.
